Data taken from patent US6489351B1, “Condensed 4,5,6,7-tetrahydrobenzo[C]thiophenes as enhancer for cell differentation induction factor action” (Takeda Chemical Industries, Ltd., priority 1996, dated 2002).

Key:
[1] = system: Chondrocytes, prepared from rabbit rib cartilage; assay: Anti-collagenase action in rabbit chondrocytes (IL-1-induced collagenase production); assay type: cell-based; conditions: IL-1 30 ng/ml added, 48 hours, mean±SE, control with IL-1 21.9 ± 1.7, without IL-1 0.1 ± 0.1
Protocol: Chondrocytes, prepared from rabbit rib cartilage, were suspended in Dulbecco's MEM (DMEM) supplemented with 10% FCS, sown to 12-well plates, and cultured until a confluent state was reached. After the culture broth was removed, the cells were cultured for 48 hours in serum-free DMEM containing IL-1 (30 ng/ml) and the sample compound. The collagenase produced upon induction by IL-1 stimulation and secreted in the culture broth was activated by trypsinization; after a soybean trypsin inhibitor was added to inactivate the trypsin, activity was determined with type I collagen as the substrate. The values obtained are given in mean±SE in Table 3. The data were statistically analyzed by Student's t-test.

melting point: 206 to 207 °C (dec.)
Compound: CSc1oc(C(=O)O)c2c1-c1nc(-c3ccccc3)sc1CC2 [Example 25, 4,5-dihydro-8-methylthio-2-phenylfuro[3,4-e]benzothiazole-6-carboxylic acid]
Collagenase Activity (units/ml) ([1]; compound 10^−5 M): 1.8 ± 0.6 units/ml
Collagenase Activity (units/ml) ([1]; compound 10^−6 M): 11.0 ± 0.8 units/ml
